According to patent US20100216876A1, “ANTIDIARRHETIC COMPOSITION, PRODUCT CONTAINING THE SAME AND METHOD OF PREVENTING DIAHHREA” (priority 2007, published 2010):

Test system: intestinal Cl− secretion
Test: Short-circuit current (Isc) measurement of cecum mucosa sample in Ussing chamber after forskolin
Type: cell-based, mouse
Protocol: A sample of large-intestinal mucosa was prepared in the following manner. A mouse was killed by cervical vertebra dislocation. After abdominal incision, the cecum was excised by cutting the boundary parts of the cecum with the small intestine and the large intestine. The cecum was cut open with scissors into a sheet. In order to completely remove the contents of the cecum, the cecum was pinched with tweezers and washed with a buffered solution. Then, a substitution fluid was placed in a petri dish covered with rubber, and the cecum was attached thereon with the serosa side up. Under conditions in which the buffered solution-in the petri dish was always aerated with 95% O2/5% CO2, the muscle layer was peeled using tweezers, and a sample composed of mucosa and submucosa was produced. The sample was divided into four pieces for the experiment.
Electrical analysis was carried out using this sample. FIG. 1 is a diagram showing an embodiment of measurement of short-circuit current (Isc) in Ussing chamber. The mucosa sample was placed between two Ussing-type chambers (window area: 0.2 cm^2) containing 5 ml of buffered solution. For the measurement of the electrical potential difference, a pair of calomel electrodes was connected to each chamber through a 1MKCl/2% agar salt bridge. For passing current, Ag/AgGl electrodes connected through a 1MNaCl/2% agar salt bridge were mounted. These electrodes were connected to a voltage clamp apparatus, and the short-circuit current (Isc) was measured. As for Isc, the current flowing from the mucosa side to the serosa side was positive.
The solutions to be administered were prepared as stock solutions so that the concentration of each solution was 1,000 times higher than the desired final concentration.

[1] = 20 μM on the serosa side after forskolin
[2] = 50 μM on the serosa side after forskolin

| SMILES | Isc decrease [1] | Isc decrease (150 μM on the serosa side after forskolin) | Isc decrease [2] | action on Isc compared with menthol [1] | dose dependence of the Isc inhibitory effect (serosa side after forskolin) |
| --- | --- | --- | --- | --- | --- |
| CC(C)[C@@H]1CC[C@@H](C)C[C@H]1OCCO [2-(l-menthoxy)ethanol] | about 10 μA/cm^2 | about 70 μA/cm^2 | – | – | – |
| CC(C)[C@@H]1CC[C@@H](C)C[C@H]1OCCCO | about 50 μA/cm^2 | – | about 70 μA/cm^2 | – | – |
| CC(C)[C@@H]1CC[C@@H](C)C[C@H]1OCC(C)(O)CO (stereo partly drawn) [2-methyl-3-(l-menthoxy)propane-1,2-diol] | about 100 μA/cm^2 | – | – | almost equal to the administration of 500 μM of menthol | dose dependence was observed at doses up to 50 μM |
| CC1CCC(C(C)C)C(OCC(O)CO)C1 (stereo not drawn) [3-(l-menthoxy)propane-1,2-diol] | about 50 μA/cm^2 | – | about 70 μA/cm^2 | – | – |
